How the values were obtained:
[1] = target: T1, 5-hydroxytryptamine receptor 2B (Homo sapiens, UniProt P41595); assay: Displacement of [3H]LSD from human cloned 5HT2B receptor expressed in CHO cells by liquid scintillation counting; format: cell-based
[2] = target: T1, 5-hydroxytryptamine receptor 2B; assay: Agonist at human 5HT2B receptor expressed in HEK293 cells assessed as induction of calcium influx by FLIPR assay; format: functional, cell-based

T1 sequence (P41595 whole entry): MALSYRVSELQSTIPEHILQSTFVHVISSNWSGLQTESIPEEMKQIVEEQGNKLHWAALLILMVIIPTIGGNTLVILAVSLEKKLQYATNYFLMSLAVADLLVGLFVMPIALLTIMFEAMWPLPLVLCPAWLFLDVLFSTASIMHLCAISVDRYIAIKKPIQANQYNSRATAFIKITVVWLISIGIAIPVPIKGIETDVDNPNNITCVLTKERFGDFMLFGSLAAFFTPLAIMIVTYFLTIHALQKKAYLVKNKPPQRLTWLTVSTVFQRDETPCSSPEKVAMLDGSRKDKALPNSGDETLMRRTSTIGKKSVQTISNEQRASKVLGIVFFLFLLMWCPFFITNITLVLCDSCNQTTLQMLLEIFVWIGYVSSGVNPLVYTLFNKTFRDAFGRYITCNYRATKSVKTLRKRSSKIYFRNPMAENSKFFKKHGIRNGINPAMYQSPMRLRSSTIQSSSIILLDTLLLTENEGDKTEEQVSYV

SMILES | Ki [1] [nM] | EC50 [2] [nM]
COc1ccc2[nH]cc(CN)c2c1 | 1620 | –
Cn1ccc2cc3c(cc21)CCN3C(=O)Nc1cccnc1 | 4.3 | –
COc1cc2c(CCNC(C)=O)c[nH]c2cc1F | 2500 | –
Fc1ccc(N2CCN(CCC3OCCc4ccccc43)CC2)cc1 (centres undefined) | 69.6 | –
COc1ccc2[nH]c3c(c2c1)CCNC3C (centres undefined) [ADRENOGLOMERULOTROPIN] | 491 | –
CC(NCCC(c1ccccc1)c1ccccc1)c1ccccc1 (centres undefined) [FENDILINE] | 3220 | –
NC(=O)N1c2ccccc2CC(O)c2ccccc21 (centres undefined) [LICARBAZEPINE] | > 10000 | –
CC[C@@H](CO)NC(=O)[C@@H]1C=C2c3cccc4[nH]cc(c34)C[C@H]2N(C)C1 [METHYLERGONOVINE] | 0.8 | 21.4
